Source: ChEMBL document CHEMBL5352466, “New bioisosteric sulphur-containing choline kinase inhibitors with a tracked mode of action” (Eur J Med Chem, 2023)
Activity calls are given as the source filed them. The calls are words filed in the database; no cut-off is given here.

What was measured:
HeLa [1] = experiment: Antiproliferative activity against human HeLa cells assessed as inhibition of cell growth incubated for 72 hrs; type: functional
Choline kinase alpha = Choline kinase alpha (Homo sapiens, UniProt P35790); experiment: Inhibition of human Choline kinase alpha 1 incubated for 10 mins by liquid-scintillation counter analysis
HT-29 = experiment: Antiproliferative activity against human HT-29 cells assessed as inhibition of cell growth incubated for 72 hrs; type: functional
A549 [2] = experiment: Antiproliferative activity against human A549 cells assessed as inhibition of cell growth incubated for 72 hrs; type: functional
MDA-MB-231 = experiment: Antiproliferative activity against human MDA-MB-231 cells assessed as inhibition of cell growth incubated for 72 hrs; type: functional
MCF7 = experiment: Antiproliferative activity against human MCF7 cells assessed as inhibition of cell growth incubated for 72 hrs; type: functional
Astrocyte = experiment: Induction of apoptosis in human Astrocyte cells assessed as reduction in MCL-1 expression at 5 uM measured for 48 hrs by Western blotting analysis; type: functional, cell-based
A549 [3] = experiment: Induction of cell cycle arrest in human A549 cells at 1 to 5 uM incubated for 24 hrs by PI staining based flow cytometry analysis; type: functional; settings: dose 1-5 µM
HeLa [4] = experiment: Induction of apoptosis in human HeLa cells assessed as increase in cleaved PARP-1 expression at 5 uM measured for 48 hrs by Western blotting analysis; type: functional, cell-based
A549 [5] = experiment: Induction of apoptosis in human A549 cells at 5 uM measured for 72 hrs in presence of Z-VAD-fmk by Annexin V/propidium iodide staining based flow cytometry analysis; type: functional, cell-based
HeLa [6] = experiment: Induction of apoptosis in human HeLa cells at 1 to 5 uM measured for 72 hrs by Annexin V/propidium iodide staining based flow cytometry analysis; type: functional, cell-based; settings: dose 1-5 µM
[7] = Antiproliferative activity against human Astrocyte cells assessed as inhibition of cell growth incubated for 72 hrs by resazurin dye based assay; type: toxicity
HeLa [8] = experiment: Induction of apoptosis in human HeLa cells at 1 to 5 uM by Annexin V/propidium iodide staining based flow cytometry analysis; type: functional, cell-based; settings: dose 1-5 µM, time 48-72 hrs, TDE = time-dependent effect
HeLa [9] = experiment: Induction of apoptosis in human HeLa cells at 5 uM measured for 72 hrs in presence of Z-VAD-fmk by Annexin V/propidium iodide staining based flow cytometry analysis; type: functional, cell-based
HeLa [10] = experiment: Induction of mitochondrial membrane potential depolarization in human HeLa cells at 1 to 5 uM incubated for 24 hrs by JC-1 staining based flow cytometry; type: functional, cell-based; settings: dose 1-5 µM
A549 [11] = experiment: Induction of mitochondrial membrane potential depolarization in human A549 cells at 5 uM incubated for 24 hrs by JC-1 staining based flow cytometry; type: functional, cell-based
HeLa [12] = experiment: Induction of cell cycle arrest in human HeLa cells at 1 to 5 uM incubated for 24 hrs by PI staining based flow cytometry analysis; type: functional; settings: dose 1-5 µM
HeLa [13] = experiment: Induction of cell cycle arrest in human HeLa cells assessed as accumulation of cells at G1 phase at 1 to 5 uM incubated for 24 hrs by PI staining based flow cytometry analysis; type: functional; settings: dose 1-5 µM
HeLa [14] = experiment: Induction of apoptosis in human HeLa cells measured for 48 to 72 hrs by Annexin V/propidium iodide staining based flow cytometry analysis; type: functional, cell-based; settings: dose 1-5 µM, time 48-72 hrs
HeLa [15] = experiment: Induction of apoptosis in human HeLa cells assessed as reduction in MCL-1 expression at 5 uM measured for 48 hrs by Western blotting analysis; type: functional, cell-based
[16] = Antiproliferative activity against human MCF-10A cells assessed as inhibition of cell growth incubated for 72 hrs by resazurin dye based assay; type: toxicity
[17] = Drug localization in cytosol of human MCF7 cells assessed as increase in fluorescence intensity at 8 uM by microscopic analysis; type: ADME, subcellular
[18] = Drug localization in cytosol of human MCF7 cells assessed as increase in fluorescence intensity at 8 uM measured after 15 mins by microscopic analysis; type: ADME, subcellular; settings: 0.25 h
Cell membrane = experiment: Induction of cell membrane disruption in human MCF7 cells at 8 uM measured after 90 mins; type: subcellular

Choline kinase alpha, sequence (P35790 whole entry): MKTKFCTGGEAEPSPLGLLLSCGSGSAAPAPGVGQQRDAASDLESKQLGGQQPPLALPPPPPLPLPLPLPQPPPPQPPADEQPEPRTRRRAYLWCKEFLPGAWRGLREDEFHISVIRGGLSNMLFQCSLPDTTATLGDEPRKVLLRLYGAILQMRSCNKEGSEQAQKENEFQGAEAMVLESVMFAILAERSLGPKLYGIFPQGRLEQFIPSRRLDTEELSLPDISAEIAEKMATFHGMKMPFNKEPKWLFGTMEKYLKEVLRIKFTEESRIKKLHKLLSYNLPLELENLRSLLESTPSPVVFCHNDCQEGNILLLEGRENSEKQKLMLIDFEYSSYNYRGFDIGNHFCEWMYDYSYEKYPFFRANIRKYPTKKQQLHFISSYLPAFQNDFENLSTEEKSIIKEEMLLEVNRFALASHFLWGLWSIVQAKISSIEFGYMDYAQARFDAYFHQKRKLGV

Structure (SMILES)	GI50 (HeLa [1])	IC50 (Choline kinase alpha; read-out: IC50)	GI50 (HT-29)	GI50 (A549 [2])	GI50 (MDA-MB-231)	GI50 (MCF7)	further results
c1cc2c(s1)c(N1CCCC1)nc[n+]2Cc1ccc(SSc2ccc(C[n+]3cnc(N4CCCC4)c4sccc43)cc2)cc1	> 10000 nM	570 nM	> 10000 nM	> 10000 nM			
c1cc2c(s1)c(N1CCCC1)cc[n+]2Cc1ccc(SCCSc2ccc(C[n+]3ccc(N4CCCC4)c4sccc43)cc2)cc1	9930 nM	1010 nM	7480 nM	1370 nM	2010 nM	3110 nM	
CN(c1ccc(Cl)cc1)c1cc[n+](Cc2ccc(SSc3ccc(C[n+]4ccc(N(C)c5ccc(Cl)cc5)c5ccccc54)cc3)cc2)c2ccccc12	> 10000 nM	850 nM	> 10000 nM	> 10000 nM			
CN(c1ccc(Cl)cc1)c1cc[n+](Cc2ccc(SCCSc3ccc(C[n+]4ccc(N(C)c5ccc(Cl)cc5)c5ccccc54)cc3)cc2)c2ccccc12	> 10000 nM	1020 nM	8900 nM	2900 nM	5870 nM	3690 nM	
CN(c1ccccc1)c1cc[n+](Cc2ccc(SCCSc3ccc(C[n+]4ccc(N(C)c5ccccc5)c5ccsc54)cc3)cc2)c2sccc12	5250 nM	1430 nM	6800 nM	4050 nM	6680 nM	3940 nM	
CN(c1ccccc1)c1cc[n+](Cc2ccc(SCCSc3ccc(C[n+]4ccc(N(C)c5ccccc5)c5ccccc54)cc3)cc2)c2ccccc12	9060 nM	1720 nM	5980 nM	2020 nM	1970 nM	4730 nM	
CN(C)c1cc[n+](Cc2ccc(SCCSc3ccc(C[n+]4ccc(N(C)C)cc4)cc3)cc2)cc1.[Br-].[Br-]	> 10000 nM		> 10000 nM	1380 nM	4200 nM		IC50 (Choline kinase alpha): Not Determined(Insoluble)
c1cc2c(s1)c(N1CCCCCC1)cc[n+]2Cc1ccc(SCCSc2ccc(C[n+]3ccc(N4CCCCCC4)c4sccc43)cc2)cc1	4630 nM	640 nM	2410 nM	1290 nM	1920 nM	2120 nM	Activity (Astrocyte): inactive; Activity (A549 [3]): inactive; Activity (HeLa [4]): Active; Activity (A549 [5]): inactive; Activity (HeLa [6]): Active; GI50 at 72 h [7]: 4400 nM; Activity (HeLa [8]): Tde; Activity (HeLa [9]): Active; Activity (HeLa [10]): Active; Activity (A549 [11]): Active; Activity (HeLa [12]): inactive; Activity (HeLa [13]): Active; Activity (HeLa [14]): Dose-Dependent Effect; Activity (HeLa [15]): Active; GI50 at 72 h [16]: 2500 nM
[Br-].[Br-].c1cc2c(s1)c(N1CCCC1)nc[n+]2Cc1ccc(SCCSc2ccc(C[n+]3cnc(N4CCCC4)c4sccc43)cc2)cc1	10100 nM	1350 nM	2630 nM	440 nM	1630 nM	4340 nM	Drug uptake [17]: Active; Drug uptake [18]: Active; Activity (Cell membrane): inactive
[Br-].[Br-].c1cc(SCCSc2ccc(C[n+]3ccc(N4CCCC4)cc3)cc2)ccc1C[n+]1ccc(N2CCCC2)cc1	8840 nM		9060 nM	1590 nM	1750 nM		IC50 (Choline kinase alpha): Not Determined(Insoluble)
c1cc2c(N3CCCCCC3)nc[n+](Cc3ccc(SSc4ccc(C[n+]5cnc(N6CCCCCC6)c6ccsc65)cc4)cc3)c2s1	1230 nM	320 nM	> 10000 nM	4260 nM			
Clc1ccc2c(N3CCCC3)cc[n+](Cc3ccc(SCCSc4ccc(C[n+]5ccc(N6CCCC6)c6ccc(Cl)cc65)cc4)cc3)c2c1	260 nM		3000 nM	530 nM		1340 nM	Activity (Astrocyte): inactive; Activity (A549 [3]): inactive; Activity (HeLa [4]): Active; Activity (HeLa [6]): Active; GI50 at 72 h [7]: 5000 nM; Activity (HeLa [8]): Tde; Activity (HeLa [10]): Active; Activity (A549 [11]): Active; Activity (HeLa [12]): inactive; Activity (HeLa [13]): Active; Activity (HeLa [14]): Dose-Dependent Effect; Activity (HeLa [15]): Active; GI50 at 72 h [16]: 2600 nM
Clc1ccc2c(N3CCCC3)cc[n+](Cc3ccc(SSc4ccc(C[n+]5ccc(N6CCCC6)c6ccc(Cl)cc65)cc4)cc3)c2c1	> 10000 nM	1430 nM	> 10000 nM	> 10000 nM			
CN(c1ccc(Cl)cc1)c1cc[n+](Cc2ccc(SCCSc3ccc(C[n+]4ccc(N(C)c5ccc(Cl)cc5)c5ccsc54)cc3)cc2)c2sccc12	> 10000 nM	710 nM	6070 nM	2660 nM	2950 nM	2370 nM	
c1cc(SSc2ccc(C[n+]3ccc(N4CCCC4)cc3)cc2)ccc1C[n+]1ccc(N2CCCC2)cc1	> 10000 nM	360 nM	> 10000 nM	> 10000 nM			
CN(c1ccccc1)c1nc[n+](Cc2ccc(SCCSc3ccc(C[n+]4cnc(N(C)c5ccccc5)c5sccc54)cc3)cc2)c2ccsc12	> 10000 nM	2600 nM	> 10000 nM	8200 nM	8940 nM	9120 nM	
c1cc2c(N3CCCCC3)nc[n+](Cc3ccc(SSc4ccc(C[n+]5cnc(N6CCCCC6)c6ccsc65)cc4)cc3)c2s1	> 10000 nM	520 nM	> 10000 nM	> 10000 nM			
CN(C)c1cc[n+](Cc2ccc(SSc3ccc(C[n+]4ccc(N(C)C)cc4)cc3)cc2)cc1	440 nM	640 nM	> 10000 nM	2450 nM			
c1cc2c(N3CCCCCC3)cc[n+](Cc3ccc(SCCSc4ccc(C[n+]5ccc(N6CCCCCC6)c6ccsc65)cc4)cc3)c2s1	2800 nM	660 nM	2090 nM	890 nM	1460 nM	1460 nM	Activity (Astrocyte): inactive; Activity (A549 [3]): inactive; Activity (HeLa [4]): Active; Activity (A549 [5]): inactive; Activity (HeLa [6]): Active; GI50 at 72 h [7]: 2500 nM; Activity (HeLa [8]): Tde; Activity (HeLa [9]): Active; Activity (HeLa [10]): Active; Activity (A549 [11]): Active; Activity (HeLa [12]): inactive; Activity (HeLa [13]): Active; Activity (HeLa [14]): Dose-Dependent Effect; Activity (HeLa [15]): Active
[Br-].[Br-].c1cc2c(s1)c(N1CCCCCC1)cc[n+]2Cc1ccc(SSc2ccc(C[n+]3ccc(N4CCCCCC4)c4sccc43)cc2)cc1	> 10000 nM		> 10000 nM	> 10000 nM			IC50 (Choline kinase alpha): Not Determined(Insoluble)
c1cc2c(N3CCCCC3)cc[n+](Cc3ccc(SCCSc4ccc(C[n+]5ccc(N6CCCCC6)c6ccsc65)cc4)cc3)c2s1	2990 nM	4400 nM	2160 nM	920 nM	1230 nM	1210 nM	
c1cc2c(s1)c(N1CCCC1)cc[n+]2Cc1ccc(SSc2ccc(C[n+]3ccc(N4CCCC4)c4sccc43)cc2)cc1	2200 nM	350 nM	> 10000 nM	6160 nM			
